Reference: patent US6642392B1 (priority 1997, dated 2003)
Like-named read-outs stand apart in the source and are kept apart here.

Assays:
Format in all cases: in vivo
[1] = test system: Eiysiphe graminis f. sp. tritici; test: Test A: wheat powdery mildew, preventive spray on wheat seedlings; settings: for Test A disease control rating: wheat powdery mildew; for Test A disease control rating (100 = 100% disease control, 0 = no disease control): wheat seedlings sprayed to run-off, inoculated the following day, rating relative to controls, unmarked compounds (standard test rate)
In short: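 Preventive test: seedlings inoculated with powdery mildew spores one day after run-off spraying of a suspension. Ratings after 7 days in a 20° C growth chamber express percent disease control versus controls.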

Puccinia recondita = test: Test B: wheat leaf rust, preventive spray on wheat seedlings; settings: for Test B disease control rating: wheat leaf rust; for Test B disease control rating (100 = 100% disease control, 0 = no disease control): wheat seedlings sprayed to run-off, inoculated the following day, rating relative to controls, unmarked compounds (standard test rate)
In short: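 Preventive test: P. recondita spores were applied one day after a run-off spray of compound suspension on wheat seedlings. Plants had 24 h at 20 °C in saturated air plus 6 days in a 20 °C growth chamber. Scoring is % disease control (100 = full) relative to controls.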

Pyricularia oryzae = settings: for Test C disease control rating: rice blast; for Test C disease control rating (100 = 100% disease control, 0 = no disease control): rice seedlings sprayed to run-off, inoculated the following day, rating relative to controls, unmarked compounds (standard test rate)
Phytophthora infestans = settings: for Test D disease control rating: tomato late blight; for Test D disease control rating (100 = 100% disease control, 0 = no disease control): tomato seedlings sprayed to run-off, inoculated the following day, rating relative to controls, unmarked compounds (standard test rate)
Botrytis cinerea = test: Test E: gray mold, preventive spray on cucumber seedlings; settings: for Test E disease control rating: gray mold on cucumber; for Test E disease control rating (100 = 100% disease control, 0 = no disease control): cucumber seedlings sprayed to run-off, inoculated the following day, rating relative to controls, unmarked compounds (standard test rate)
In short: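 Preventive spray on cucumber seedlings used a suspension (3% acetone, 250 ppm Trem 014), applied to run-off one day before inoculation with Botrytis cinerea spores. Plants were held 48 h at 20° C in saturated air, then 5 days at 20° C. Percent disease control was scored relative to untreated plants.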

[2] = 100 = 100% disease control, 0 = no control relative to controls, unmarked entries (standard test concentration)
[3] = 100 = 100% disease control, 0 = no control, unmarked entries (standard test concentration)

CCC1(C(=O)NC(C)COc2ccccc2Br)C(C)C1(Cl)Cl (mixture of isomers) [84a]
Test A disease control rating ([1]; tested at 40 ppm): 29% | Test B disease control rating (Puccinia recondita; tested at 40 ppm): 0% | Test C disease control rating (Pyricularia oryzae; tested at 40 ppm): 0% | Test D disease control rating (Phytophthora infestans; tested at 40 ppm): 20% | Test E disease control rating (Botrytis cinerea; tested at 40 ppm): 0%

C=CCc1ccccc1OCC(C)NC(=O)C1(CC)C(C)C1(Cl)Cl (stereo not shown) [101b]
Test A disease control rating ([1]; tested at 40 ppm): 0% | Test B disease control rating (Puccinia recondita; tested at 40 ppm): 0% | Test C disease control rating (Pyricularia oryzae; tested at 40 ppm): 0% | Test D disease control rating (Phytophthora infestans; tested at 40 ppm): 0% | Test E disease control rating (Botrytis cinerea; tested at 40 ppm): 0%

CC(COc1ccccc1C#N)NC(=O)C(C#N)C(C)C(C)(C)C (mixture of isomers) [compound 60]
Test A disease control rating ([1]; tested at 40 ppm): 91% | Test B disease control rating (Puccinia recondita; tested at 40 ppm): 0% | Test C disease control rating (Pyricularia oryzae; tested at 40 ppm): 0% | Test D disease control rating (Phytophthora infestans; tested at 40 ppm): 0% | Test E disease control rating (Botrytis cinerea; tested at 40 ppm): 0%

C[C@H](COc1ccc(F)c(F)c1F)NC(=O)C(C#N)C(C)(C)C (single isomer, unassigned) [190a]
Test A disease control rating [1, 2]: 0% | Test B disease control rating (Puccinia recondita; [3]): 0% | Test C disease control rating (Pyricularia oryzae; [3]): 91% | Test D disease control rating (Phytophthora infestans; [3]): 0% | Test E disease control rating (Botrytis cinerea; [3]): 6%

CC(COc1ccccc1Br)NC(=O)C(C#N)C(C)(C)C (mixture of isomers) [8a]
Test A disease control rating [1, 2]: 0% | Test B disease control rating (Puccinia recondita; [3]): 0% | Test C disease control rating (Pyricularia oryzae; [3]): 85% | Test D disease control rating (Phytophthora infestans; [3]): 0% | Test E disease control rating (Botrytis cinerea; [3]): 7%

CC(COc1ccc(F)cc1)NC(=O)C(C#N)C(C)(C)C (single isomer, unassigned) [4b]
Test A disease control rating [1, 2]: 86% | Test B disease control rating (Puccinia recondita; [3]): 0% | Test C disease control rating (Pyricularia oryzae; [3]): 99% | Test D disease control rating (Phytophthora infestans; [3]): 89% | Test E disease control rating (Botrytis cinerea; [3]): 82%

CC(C(C#N)C(=O)NCC=Cc1ccccc1F)C(C)(C)C (mixture of isomers) [compound 75]
Test A disease control rating ([1]; tested at 40 ppm): 0% | Test B disease control rating (Puccinia recondita; tested at 40 ppm): 0% | Test C disease control rating (Pyricularia oryzae; tested at 40 ppm): 52% | Test D disease control rating (Phytophthora infestans; tested at 40 ppm): 19% | Test E disease control rating (Botrytis cinerea; tested at 40 ppm): 0%

C[C@H](COc1cc(F)ccc1Br)NC(=O)C(C#N)C(C)(C)C (single isomer, unassigned) [166b]
Test A disease control rating [1, 2]: 0% | Test B disease control rating (Puccinia recondita; [3]): 0% | Test C disease control rating (Pyricularia oryzae; [3]): 99% | Test D disease control rating (Phytophthora infestans; [3]): 0% | Test E disease control rating (Botrytis cinerea; [3]): 0%

C=CCc1cccc(C#N)c1OCC(C)NC(=O)C1(CC)C(C)C1(Cl)Cl (mixture of isomers) [compound 254]
Test A disease control rating (100 = 100% disease control, 0 = no disease control) [1]: 0% | Test B disease control rating (100 = 100% disease control, 0 = no disease control) (Puccinia recondita): 0% | Test C disease control rating (100 = 100% disease control, 0 = no disease control) (Pyricularia oryzae): 53% | Test D disease control rating (100 = 100% disease control, 0 = no disease control) (Phytophthora infestans): 0% | Test E disease control rating (100 = 100% disease control, 0 = no disease control) (Botrytis cinerea): 0%

CC(C)(C)C(C#N)C(=O)NC/C=C/c1ccc(Cl)cc1Cl (racemic) [compound 274]
Test A disease control rating (100 = 100% disease control, 0 = no disease control) [1]: 61% | Test B disease control rating (100 = 100% disease control, 0 = no disease control) (Puccinia recondita): 28% | Test C disease control rating (100 = 100% disease control, 0 = no disease control) (Pyricularia oryzae): 74% | Test D disease control rating (100 = 100% disease control, 0 = no disease control) (Phytophthora infestans): 23% | Test E disease control rating (100 = 100% disease control, 0 = no disease control) (Botrytis cinerea): 58%

C=CCc1ccccc1OCC(C)NC(=O)C1(CC)C(C)C1(Cl)Cl (mixture of isomers) [101a]
Test A disease control rating [1, 2]: 0% | Test B disease control rating (Puccinia recondita; [3]): 0% | Test C disease control rating (Pyricularia oryzae; [3]): 0% | Test D disease control rating (Phytophthora infestans; [3]): 46% | Test E disease control rating (Botrytis cinerea; [3]): 22%

C[C@H](COc1cc(F)cc(F)c1F)NC(=O)C(C#N)C(C)(C)C (single isomer, unassigned) [168b]
Test A disease control rating [1, 2]: 95% | Test B disease control rating (Puccinia recondita; [3]): 0% | Test C disease control rating (Pyricularia oryzae; [3]): 94% | Test D disease control rating (Phytophthora infestans; [3]): 45% | Test E disease control rating (Botrytis cinerea; [3]): 86%

CC(C)(C)C(C#N)C(=O)NC/C=C/c1ccccc1Cl (racemic) [compound 179]
Test A disease control rating [1, 2]: 35% | Test B disease control rating (Puccinia recondita; [3]): 0% | Test C disease control rating (Pyricularia oryzae; [3]): 74% | Test D disease control rating (Phytophthora infestans; [3]): 23% | Test E disease control rating (Botrytis cinerea; [3]): 58%

C[C@H](COc1cc(Cl)c(Cl)cc1Cl)NC(=O)C(C#N)C(C)(C)C (single isomer, unassigned) [174a]
Test A disease control rating [1, 2]: 0% | Test B disease control rating (Puccinia recondita; [3]): 0% | Test C disease control rating (Pyricularia oryzae; [3]): 31% | Test D disease control rating (Phytophthora infestans; [3]): 54% | Test E disease control rating (Botrytis cinerea; [3]): 0%

CCC1(C(=O)NC(C)COc2cccc(C(F)(F)F)c2C#N)C(C)C1(Cl)Cl (mixture of isomers) [compound 133]
Test A disease control rating [1, 2]: 0% | Test B disease control rating (Puccinia recondita; [3]): 0% | Test C disease control rating (Pyricularia oryzae; [3]): 0% | Test D disease control rating (Phytophthora infestans; [3]): 0% | Test E disease control rating (Botrytis cinerea; [3]): 0%

CC(COc1ccc(Cl)cc1)NC(=O)C(C#N)C(C)(C)C (single isomer, unassigned) [7a]
Test A disease control rating [1, 2]: 77% | Test B disease control rating (Puccinia recondita; [3]): 85% | Test C disease control rating (Pyricularia oryzae; [3]): 91% | Test D disease control rating (Phytophthora infestans; [3]): 89% | Test E disease control rating (Botrytis cinerea; [3]): 0%

CC(C=Cc1ccccc1C#N)NC(=O)C(C#N)C(C)(C)C (mixture of isomers) [compound 307]
Test A disease control rating (100 = 100% disease control, 0 = no disease control) [1]: 36% | Test B disease control rating (100 = 100% disease control, 0 = no disease control) (Puccinia recondita): 0% | Test C disease control rating (100 = 100% disease control, 0 = no disease control) (Pyricularia oryzae): 94% | Test D disease control rating (100 = 100% disease control, 0 = no disease control) (Phytophthora infestans): 0% | Test E disease control rating (100 = 100% disease control, 0 = no disease control) (Botrytis cinerea): 0%

CCC1(C(=O)NC(C)COc2cccc(Cl)c2C#N)C(C)C1(Cl)Cl (mixture of isomers) [compound 131]
Test A disease control rating [1, 2]: 0% | Test B disease control rating (Puccinia recondita; [3]): 0% | Test C disease control rating (Pyricularia oryzae; [3]): 53% | Test D disease control rating (Phytophthora infestans; [3]): 52% | Test E disease control rating (Botrytis cinerea; [3]): 0%

CCC1(C(=O)NCC(C)=Cc2ccccc2)C(C)C1(Cl)Cl (stereo not shown) [compound 265]
Test A disease control rating (100 = 100% disease control, 0 = no disease control) [1]: 77% | Test B disease control rating (100 = 100% disease control, 0 = no disease control) (Puccinia recondita): 0% | Test C disease control rating (100 = 100% disease control, 0 = no disease control) (Pyricularia oryzae): 91% | Test D disease control rating (100 = 100% disease control, 0 = no disease control) (Phytophthora infestans): 96% | Test E disease control rating (100 = 100% disease control, 0 = no disease control) (Botrytis cinerea): 0%

CC(C=Cc1cc(F)ccc1F)NC(=O)C(C#N)C(C)(C)C (single isomer, unassigned) [229a]
Test A disease control rating (100 = 100% disease control, 0 = no disease control) [1]: 0% | Test B disease control rating (100 = 100% disease control, 0 = no disease control) (Puccinia recondita): 0% | Test C disease control rating (100 = 100% disease control, 0 = no disease control) (Pyricularia oryzae): 100% | Test D disease control rating (100 = 100% disease control, 0 = no disease control) (Phytophthora infestans): 0% | Test E disease control rating (100 = 100% disease control, 0 = no disease control) (Botrytis cinerea): 55%

Cc1c(Cl)cc(C#N)n1OCC(C)NC(=O)C(C#N)C(C)C(C)(C)C (mixture of isomers) [71a]
Test A disease control rating [1, 2]: 0% | Test B disease control rating (Puccinia recondita; [3]): 0% | Test C disease control rating (Pyricularia oryzae; [3]): 53% | Test D disease control rating (Phytophthora infestans; [3]): 19% | Test E disease control rating (Botrytis cinerea; [3]): 0%

CCC1(C(=O)NC(C)COc2cccc(CF)c2)C(C)C1(Cl)Cl (mixture of isomers) [compound 93]
Test A disease control rating ([1]; tested at 40 ppm): 57% | Test B disease control rating (Puccinia recondita; tested at 40 ppm): 0% | Test C disease control rating (Pyricularia oryzae; tested at 40 ppm): 85% | Test D disease control rating (Phytophthora infestans; tested at 40 ppm): 19% | Test E disease control rating (Botrytis cinerea; tested at 40 ppm): 0%

CC(COc1ccccc1Br)NC(=O)C(C#N)C(C)C(C)(C)C (mixture of isomers) [compound 59]
Test A disease control rating ([1]; tested at 40 ppm): 0% | Test B disease control rating (Puccinia recondita; tested at 40 ppm): 0% | Test C disease control rating (Pyricularia oryzae; tested at 40 ppm): 52% | Test D disease control rating (Phytophthora infestans; tested at 40 ppm): 0% | Test E disease control rating (Botrytis cinerea; tested at 40 ppm): 0%
